# Experimental data as given in patent US6653529B2, “Use of the maize X112 mutant ahas 2 gene and imidazolinone herbicides for selection of transgenic monocots, maize, rice and wheat plants resistant to the imidazolinone herbicides” (BASF Aktiengesellschaft, priority 2000, dated 2003).
# Where “and” joins values, the source holds several entries; their conditions need not be identical. Identical values can stand only once.
# How the values were obtained:
# Type in all cases: in vivo
# [1] = system: transgenic rice Line 26; assay: Response of rice plants to various herbicides, seed set in greenhouse; settings: post-emergence, 1× g ai/ha: PURSUIT 62.5, CADRE 32, ARSENAL 24, RAPTOR 32, SCEPTER 125, ACCENT 35, CLASSIC 5, AC322,140 20, LONDAX 68
# How it was run: (§1)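 Greenhouse flats, 10 plants per cell; 9 herbicides (imidazolinones, rice herbicides, nicosulfuron, chlorimuron-ethyl) sprayed pre- or post-emergence at 1, 2, 4 and 6× rates, three replications. Fresh weight taken 32 days (pre) or 29 days (post, 5 plants/cell) after spraying; remaining plants grown to maturity for percentage filled-seed set.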
# [2] = system: transgenic rice Line 29; assay: as above; settings: post-emergence, 1× g ai/ha: PURSUIT 62.5, CADRE 32, ARSENAL 24, RAPTOR 32, SCEPTER 125, ACCENT 35, CLASSIC 5, AC322,140 20, LONDAX 68
# How it was run: as §1
# [3] = system: untransformed Nt rice plants; assay: as above; settings: post-emergence, 1× g ai/ha: PURSUIT 62.5, CADRE 32, ARSENAL 24, RAPTOR 32, SCEPTER 125, ACCENT 35, CLASSIC 5, AC322,140 20, LONDAX 68
# How it was run: as §1
# [4] = system: transgenic corn hybrid MAa-7; assay: Greenhouse spray test of corn lines with imidazolinone herbicides, injury score; settings: MAa-7; for Score, individual plants (0 dead plants, 5 healthy plants with no injury): 16 days after treatment; for M.S.: score 0 (dead) to 5 (healthy), 16 days
# Text: (§2) Grow one corn plant per pot (5×5 inch) in a 3×5 flat till three- to four-leaf stage (about 9 to 13 days depending on the weather). On the day of spraying, water the plants well and let excess water drip out. Spray plants on a belt-sprayer with the imidazolinone herbicides at desired rates. […] When temperature was too high, base water plants to prevent wilting. Closely observe the plants for the next two to three weeks. Symptoms of herbicide injury will be visible three days after spraying and susceptible plants will die within two to three weeks depending on temperature.
# (§3) The plants were rated on a scale of 0-5 with 0 for dead plants and 5 for healthy plants with no or minimum injury.
# (§4) Two transgenic hybrids BAa-4 and MAa-7 lines (see FIG. 5 for their pedigree), a non-transformed control line B×A (B73×A188), 8962IT (heterozygous XI12 imi-tolerant corn line), 8962 (wild type control) and 3395IR (homozygous XA17 imi-resistant corn line) (8962IT and 8962 were from ICI, now Garst Seed Company, Slater, Iowa 50244, and 3395IR was from Pioneer Hi-Bred International Inc, Iowa 50306-3453). Plants were sprayed with 4, 8, 16 or 20×PURSUIT® imazethapyr, ARSENAL® imazapyr, CADRE® imazameth or RAPTOR® imazamox. Plants were scored 0 to 5 (with 0 being dead plants, 5 being healthy plants with no injury) individually 16 days after herbicide treatments. […] For the four tested imidazolinones, transgenic plants could tolerate higher rates of ARSENAL® imazapyr, PURSUIT® imazethapyr, than CADRE® imazameth and RAPTOR® imazamox.
# [5] = system: 3395IR (homozygous XA17 imi-resistant corn line); assay: as above; settings: for Score, individual plants (0 dead plants, 5 healthy plants with no injury): 16 days after treatment; for M.S.: score 0 (dead) to 5 (healthy), 16 days
# Text: as §2, §3, §4
# [6] = system: transgenic corn hybrid BAa-4; assay: as above; settings: BAa-4; for Score, individual plants (0 dead plants, 5 healthy plants with no injury): 16 days after treatment; for M.S.: score 0 (dead) to 5 (healthy), 16 days
# Text: as §2, §3, §4
# [7] = system: non-transformed control corn line BxA (B73×A188); assay: as above; settings: for Score, individual plants (0 dead plants, 5 healthy plants with no injury): 16 days after treatment; for M.S.: score 0 (dead) to 5 (healthy), 16 days
# Text: as §2, §3, §4
# [8] = system: 8692IT (heterozygous XI12 imi-tolerant corn line); assay: as above; settings: for Score, individual plants (0 dead plants, 5 healthy plants with no injury): 16 days after treatment; for M.S.: score 0 (dead) to 5 (healthy), 16 days
# [9] = 4×: PURSUIT 250, RAPTOR 160, ARSENAL 96, CADRE 400 g/ha
# [10] = 8×: PURSUIT 500, RAPTOR 320, ARSENAL 192, CADRE 800 g/ha
structure (smiles),measurement,setting,value
"CCc1cnc(C2=NC(C)(C(C)C)C(=O)N2)c(C(=O)O)c1 (stereo not drawn) [PURSUIT ®, imazethapyr]",% seed-set,[1]; 1× rate,91%
same,No. filled seeds/3 panicles,[1]; 1× rate,143
same,Total No. of kernels/3 panicles,[1]; 1× rate,157
same,% seed-set,[1]; 2× rate,86%
same,No. filled seeds/3 panicles,[1]; 2× rate,133
same,Total No. of kernels/3 panicles,[1]; 2× rate,155
same,% seed-set,[1]; 4× rate,89%
same,No. filled seeds/3 panicles,[1]; 4× rate,152
same,Total No. of kernels/3 panicles,[1]; 4× rate,172
same,% seed-set,[1]; 6× rate,77%
same,No. filled seeds/3 panicles,[1]; 6× rate,107
same,Total No. of kernels/3 panicles,[1]; 6× rate,138
same,% seed-set,[2]; 1× rate,85%
same,No. filled seeds/3 panicles,[2]; 1× rate,125
same,Total No. of kernels/3 panicles,[2]; 1× rate,146
same,% seed-set,[2]; 2× rate,88%
same,No. filled seeds/3 panicles,[2]; 2× rate,136
same,Total No. of kernels/3 panicles,[2]; 2× rate,155
same,% seed-set,[2]; 4× rate,88%
same,No. filled seeds/3 panicles,[2]; 4× rate,138
same,Total No. of kernels/3 panicles,[2]; 4× rate,156
same,% seed-set,[2]; 6× rate,87%
same,No. filled seeds/3 panicles,[2]; 6× rate,141
same,Total No. of kernels/3 panicles,[2]; 6× rate,160
same,% seed-set,[3]; 1× rate,35%
same,No. filled seeds/3 panicles,[3]; 1× rate,38
same,Total No. of kernels/3 panicles,[3]; 1× rate,47
same,% seed-set,[3]; 2× rate,0%
same,No. filled seeds/3 panicles,[3]; 2× rate,0
same,Total No. of kernels/3 panicles,[3]; 2× rate,0
same,% seed-set,[3]; 4× rate,10%
same,No. filled seeds/3 panicles,[3]; 4× rate,19
same,Total No. of kernels/3 panicles,[3]; 4× rate,21
same,% seed-set,[3]; 6× rate,0%
same,No. filled seeds/3 panicles,[3]; 6× rate,0
same,Total No. of kernels/3 panicles,[3]; 6× rate,0
same,"Score, individual plants (0 dead plants, 5 healthy plants with no injury)",[4]; [9],5
same,M.S.,[4]; [9],5
same,"Score, individual plants (0 dead plants, 5 healthy plants with no injury)",[4]; [10],5
same,M.S.,[4]; [10],5
same,"Score, individual plants (0 dead plants, 5 healthy plants with no injury)",[4]; 20×: PURSUIT 1.25 kg/ha,0 and 3 and 2 (2×) and 4
same,M.S.,[4]; 20×: PURSUIT 1.25 kg/ha,2.2
same,"Score, individual plants (0 dead plants, 5 healthy plants with no injury)",[5]; [9],5
same,M.S.,[5]; [9],5
same,"Score, individual plants (0 dead plants, 5 healthy plants with no injury)",[5]; [10],5
same,M.S.,[5]; [10],5
same,"Score, individual plants (0 dead plants, 5 healthy plants with no injury)",[5]; 20×: PURSUIT 1.25 kg/ha,5
same,M.S.,[5]; 20×: PURSUIT 1.25 kg/ha,5
same,"Score, individual plants (0 dead plants, 5 healthy plants with no injury)",[6]; [9],5
same,M.S.,[6]; [9],5
same,"Score, individual plants (0 dead plants, 5 healthy plants with no injury)",[6]; [10],5
same,M.S.,[6]; [10],5
same,"Score, individual plants (0 dead plants, 5 healthy plants with no injury)",[6]; 20×: PURSUIT 1.25 kg/ha,4 (3×) and 3 and 2
same,M.S.,[6]; 20×: PURSUIT 1.25 kg/ha,3.4
same,"Score, individual plants (0 dead plants, 5 healthy plants with no injury)",[7]; [9],0
same,M.S.,[7]; [9],0
same,"Score, individual plants (0 dead plants, 5 healthy plants with no injury)",[7]; [10],0
same,M.S.,[7]; [10],0
same,"Score, individual plants (0 dead plants, 5 healthy plants with no injury)",[7]; 20×: PURSUIT 1.25 kg/ha,0
same,M.S.,[7]; 20×: PURSUIT 1.25 kg/ha,0
same,"Score, individual plants (0 dead plants, 5 healthy plants with no injury)",[8]; [9],5
same,M.S.,[8]; [9],5
same,"Score, individual plants (0 dead plants, 5 healthy plants with no injury)",[8]; [10],5 (4×) and 4
same,M.S.,[8]; [10],4.8
same,"Score, individual plants (0 dead plants, 5 healthy plants with no injury)",[8]; 20×: PURSUIT 1.25 kg/ha,4 (4×) and 3
same,M.S.,[8]; 20×: PURSUIT 1.25 kg/ha,3.8
